# Source: patent US8604085B2, “Bupropion hydrobromide polymorphs” (Valeant International Bermuda, priority 2008, dated 2013)
# “Also recorded” adds a separate entry of the source. Counter-ions that a name gives are not always drawn.
# Key:
# Assay type in all cases: physicochemical
# [1] = Stability tests on bupropion hydrobromide polymorphs in humidity chamber (XRD pattern); settings: 40° C., 85% R.H., open sample-holder
# Experimental: Stability tests were performed on bupropion hydrobromide Form I, Form II, Form III, Form IV, Form V and Form VI. The powders were stored in a controlled atmosphere (85% R.H.) at 40° C. Form I and Form II were stored for 7 and 30 days respectively, while the other forms were stored only for 30 days. The sample was positioned on the sample-holder which was introduced, without any cover, into the humidity chamber at 40° C. The layer of the sample on the sample-holder was about 0.5 cm.
# In addition, stability tests were performed on bupropion hydrobromide Form VII.
# [2] = TGA and DSC characterization; settings: for TGA (mass change): successive mass-loss steps listed per polymorph; for DSC (onset ° C.): successive thermal events listed per polymorph
# Experimental: The PXRD diffraction patterns were obtained on X-ray powder diffraction PANalytical X′pert Pro equipped with X′Celerator, in a measurement range between 3 and 40 2 theta. All the DSC experiments were performed with a DSC 7 Perkin Elmer instrument in a temperature range between 25° C. and 250° C. with a heating rate of 10° C./min.
# All the TGA experiments were conducted with a TGA 7 Perkin Elmer instrument in a temperature range between 39° C. and 310° C. with a heating rate of 10° C./min.
# PXRD, DSC, TGA and IR analyses were obtained for Bupropion Hydrobromide Polymorph Form I, Form II, Form III, Form IV, Form V, Form VI, and Form VII. PXRD analyses were obtained for the amorphous form. With respect to the PXRD analyses, the Peak List is shown for Form I, Form II, Form III, Form IV, Form V, Form VI, Form VII and the amorphous form in Table 56, Table 57, Table 58, Table 59, Table 60, Table 61, Table 62 and Table 63 respectively.
# [3] = Slurry experiments at room temperature (thermodynamic stability of crystal forms, X-ray diffraction); settings: for Slurry Result: 7 days, room temperature, form by XRD
# Experimental: Slurry experiments of Form I were performed at room temperature to verify if Form I is the thermodynamic crystal form. 0.050 g of Form I was suspended in 2 ml of solvent and stirred for 1 week. The sample was filtered and analyzed by X-ray diffraction. In the large majority of the experiments, Form I converts into Form II. […] By 1,4-Dioxane, a new crystal form was obtained named Form V. See Table 46 for the Form I slurries results (7 days).
# Further slurry experiments of Form I were performed at room temperature using 0.5 g of powder in 10 mL of solvent to confirm the results obtained even in large scale.
# 0.050 g of Form I were suspended in 2 ml of solvent and stirred at room temperature for 4 weeks (30 days). The sample was filtered and analyzed by X-ray diffraction. By 1,4-Dioxane, Form V was obtained. By tetrahydrofuran, Form II and Form VII were obtained. […] See Table 47 for the Form I slurries results (30 days).
# Slurry experiments of mixtures of Form I and Form II were performed at room temperature to verify their thermodynamic stability. 0.040 g of Form I+0.040 g of Form II were suspended in 4 ml of solvent and stirred for 1 week (7 days). The samples were filtered and analyzed by X-ray diffraction. By 1,4-Dioxane, Form V was obtained. […] See Table 48 for the Form I+Form II slurries results (7 days).
# Slurry experiments of mixtures of Form II and Form III were performed at room temperature to verify their thermodynamic stability. 0.040 g of Form II+0.040 g of Form III were suspended in 4 ml of solvent and stirred for 1 week (7 days). The samples were filtered and analyzed by X-ray diffraction. By 1,4-Dioxane, Form V was obtained. […] See Table 49 for the Form II+Form III slurries results (7 days).
# Slurry experiments of mixtures of Form II and Form IV were performed at room temperature to verify their thermodynamic stability. 0.040 g of Form II+0.040 g of Form IV were suspended in 4 ml of solvent and stirred for 1 week (7 days). The samples were filtered and analyzed by X-ray diffraction. By 1,4-Dioxane, Form V was obtained. […] See Table 50 for the Form II+Form IV slurries results (7 days).
# Slurry experiments of mixtures of Form II and Form V were performed at room temperature to verify their thermodynamic stability. 0.040 g of Form II+0.040 g of Form V were suspended in 4 ml of solvent and stirred for 1 week (7 days). The samples were filtered and analyzed by X-ray diffraction. By 1,4-Dioxane, Form V was obtained. […] See Table 51 for the Form II+Form V slurries results (7 days).
# Slurry experiments of mixtures of Form II and Form VI were performed at room temperature to verify their thermodynamic stability. 0.040 g of Form II+0.040 g of Form VI were suspended in 4 ml of solvent and stirred for 1 week (7 days). The samples were filtered and analyzed by X-ray diffraction. By 1,4-Dioxane, Form V was obtained. […] See Table 52 for the Form II+Form VI slurries results (7 days).
# Slurry experiments of mixtures of Form II and Form VII were performed at room temperature to verify their thermodynamic stability. 0.040 g of Form II+0.040 g of Form VII were suspended in 4 ml of solvent and stirred for 1 week (7 days). The samples were filtered and analyzed by X-ray diffraction. By 1,4-Dioxane, Form V was obtained. […] See Table 53 for the Form II+Form VII slurries results (7 days).
# [4] = Slurries in 2-propanol at room temperature, 50° C. and 80° C.; settings: form by XRD
# Experimental: 0.050 g of Form I were suspended in 4 ml of solvent and stirred at room temperature. for 1 week (7 days). The sample was filtered and analyzed by X-ray diffraction.
# 0.040 g of Form I+0.040 g of Form II were suspended in 4 ml of solvent and stirred at room temperature for 1 week (7 days). The sample was filtered and analyzed by X-ray diffraction experiments.
# 0.050 g of Form II were suspended in 4 ml of solvent and stirred at room temperature for 1 week (7 days). The sample was filtered and analyzed by X-ray diffraction experiments.
# 0.050 g of Form I were suspended in 4 ml of solvent and stirred at 50° C. for 1 Week (7 days). The sample was filtered and analyzed by X-ray diffraction experiments.
# 0.040 g of Form I+0.040 g of Form II were suspended in 4 ml of solvent and stirred at 50° C. for 1 week (7 days). The sample was filtered and analyzed by X-ray diffraction experiments.
# Form I+Form II were suspended in solvent and stirred at 80° C. for 14 hours. The sample was filtered and analyzed by X-ray diffraction experiments. […] Slurry in 2-propanol at 80° C. is an atypical experiment because if we consider the boiling point of the solvent, it could be defined as a combination between a slurry and precipitation experiment. Form I was obtained during the precipitation from supersaturated solution by 2-propanol. However the high temperature and the reflux produce the energetic conditions needed by the stable crystal form (Form II) to convert to the metastable crystal form (Form I).
# [5] = Release of bupropion base from the salt; settings: 150 mg of the salt tested
# Experimental: It was previously observed that when 150 mg of bupropion HCl was tested for its release of bupropion, the base value that was released was 130 mg. However, when 150 mg of bupropion HBr was tested, the base value released was only 112 mg. Thus, the amount of bupropion HBr had to be increased in order to increase the base value from 112 mg to 130 mg, which was the target.
# [6] = Stability tests on bupropion hydrobromide polymorphs in humidity chamber (XRD pattern); settings: 28 days; 25° C.; 75% R.H.
# [7] = room temperature, 1 week (7 days)
smiles,measurement,setting,value
Br.CC(NC(C)(C)C)C(=O)c1cccc(Cl)c1 (centres unmarked) [Form IV],XRD pattern / crystal form after storage,[1]; 30 days,converted into Form I
"Br.CC(NC(C)(C)C)C(=O)c1cccc(Cl)c1 (single isomer, unassigned) [Form VI]",XRD pattern / crystal form after storage,[1]; 30 days,converted into a mixture of Form I+Form II
same,TGA (mass change),[2],−97.68%
same,DSC (onset ° C.),[2],235 °C
Br.CC(NC(C)(C)C)C(=O)c1cccc(Cl)c1 (centres unmarked) [Form I + Form II],Slurry Result,"[3]; 1,2-Dimethoxy Ethane",Form II
same,Slurry Result,"[3]; 1,4-Dioxane",Form V
same,Slurry Result,[3]; Acetone,Form II
same,Slurry Result,[3]; Diethyl ether,Form II
same,Slurry Result,[3]; Ethyl acetate,Form II
same,Slurry Result,[3]; n-Hexan,Form II
same,Slurry Result,[3]; p-Xylene,Form II
same,Slurry result in 2-propanol,"[4]; 50° C., 1 week (7 days)",Form II was obtained
same,Slurry result in 2-propanol,[4]; [7],Form II was obtained
Br.CC(NC(C)(C)C)C(=O)c1cccc(Cl)c1 (centres unmarked) [Form II + Form III],Slurry Result,"[3]; 1,2-Dimethoxy Ethane",Form II
same,Slurry Result,"[3]; 1,4-Dioxane",Form V
same,Slurry Result,[3]; Acetone,Form II
same,Slurry Result,[3]; Diethyl ether,Form II
same,Slurry Result,[3]; Ethyl acetate,Form II
same,Slurry Result,[3]; n-Hexan,Form II
same,Slurry Result,[3]; p-Xylene,Form II
Br.CC(NC(C)(C)C)C(=O)c1cccc(Cl)c1 (centres unmarked) [Form III],XRD pattern / crystal form after storage,[1]; 30 days,converted into Form I
"CC(NC(C)(C)C)C(=O)c1cccc(Cl)c1 (centres unmarked) [bupropion HCl, reference compound]",base value that was released,[5],130 mg
"Br.CC(NC(C)(C)C)C(=O)c1cccc(Cl)c1 (single isomer, unassigned) [Form II]",Thermodynamic stability of the crystal form as shown by slurry experiments,[3],thermodynamically stable crystal form; also recorded: thermodynamic stable form
same,Slurry result in 2-propanol,"[4]; mixture Form I+Form II, 80° C., 14 hours",converted to Form I
same,Slurry result in 2-propanol,[4]; [7],Form II was obtained
same,XRD pattern / crystal form after storage,[1]; 7 days,did not show modification
same,XRD pattern / crystal form after storage,[1]; 30 days,did not show modification
same,TGA (mass change),[2],−93.35%
Br.CC(NC(C)(C)C)C(=O)c1cccc(Cl)c1 (centres unmarked) [Form V],XRD pattern / crystal form after storage,[1]; 30 days,converted into Form I
same,DSC (onset ° C.),[2],237.85 °C
Br.CC(NC(C)(C)C)C(=O)c1cccc(Cl)c1 (centres unmarked) [Form VII],DSC (onset ° C.),[2],268.7 °C
same,XRD pattern / crystal form after storage,[6],stable form
